Our source for the Km values is article PMC11277018, “Recombinant Expression and Characterization of a Novel Thermo-Alkaline Lipase with Increased Solvent Stability from the Antarctic Thermophilic Bacterium Geobacillus sp. ID17” (International Journal of Molecular Sciences, 2024).

Read-outs that look alike come from different tables or passages of the source.

The test relates to T1, Lip7.
T1 construct: theoretical 43 kDa, 47 kDa by SEC, 37 kDa by SDS-PAGE; monomer
Put plainly: spectrophotometric p-nitrophenol release, allosteric sigmoidal fit. As to conditions: 25 °C, pH 8.0, 50 mM potassium phosphate, read-out: K1/2. The class given is biochemical, Geobacillus sp. ID17. The source says:
spectrophotometric p-nitrophenol release, allosteric sigmoidal fit on Lip7

For the compound `CC(=O)Oc1ccc([N+](=O)[O-])cc1` [p-nitrophenyl acetate], the Km (2% (v/v) Triton X-100, Hill n 1.9 ± 0.5) was 3400 ± 700 µM. In the case of `CCCCCCCCCCCC(=O)Oc1ccc([N+](=O)[O-])cc1` [p-nitrophenyl laurate], the Km (2% (v/v) Triton X-100 (mixed micelles; interfacial), Hill n 1.8 ± 0.4) worked out at 1700 ± 400 µM. For `CCCCCCCC(=O)Oc1ccc([N+](=O)[O-])cc1` [p-nitrophenyl octanoate], the Km (2% (v/v) Triton X-100, Hill n 2.4 ± 0.8) came out at 1600 ± 300 µM. For the compound `CCCCCCCCCC(=O)Oc1ccc([N+](=O)[O-])cc1` [p-nitrophenyl decanoate], the Km (2% (v/v) Triton X-100, Hill n 3.1 ± 1.4) was found to be 2200 ± 300 µM. As for `CCCCCCCCCCCCCC(=O)Oc1ccc([N+](=O)[O-])cc1` [p-nitrophenyl myristate], the Km (2% (v/v) Triton X-100, Hill n 3.2 ± 0.6) worked out at 1400 ± 100 µM.
